Reference: PMC6874683, “Pyrrothiogatain acts as an inhibitor of GATA family proteins and inhibits Th2 cell differentiation in vitro” (Scientific Reports, 2019)

What was measured:
Th2 cytokines = assay: ELISA of cytokine production, naive CD4+ T cells under Th2 conditions; type: cell-based, mouse; conditions: 30 and 80 µM, 5 days
Experimental: C57BL/6 mice were purchased from Clea (Clea Japan, Inc., Tokyo, Japan). Total CD4^+ T cells isolated from mouse spleen were prepared using a FITC anti-mouse CD4 antibody (Cat#100510, RM4–5, BioLegend) and anti-FITC-microbeads (Cat#130-097-050, Miltenyi Biotec). Naive CD4^+ T cells (CD44^low, CD62L^high) were prepared using a MojoSort Mouse CD4 T cell Isolation Kit (Cat#480033), BioLegend). Biotinylated anti-CD44 (Cat#103004, IM7) and anti-CD25 antibodies (Cat#102004, PC61) were purchased from BioLegend. […]
The CD4^+ T cells cultured for five days were stimulated using an immobilized anti-TCR-β mAb (3 µg/mL, H57–597, BioLegend) for 16 h, and the culture supernatants were recovered. The amount of cytokines in the recovered supernatants was determined with ELISA using the following antibodies and reagents: anti-IL-4 mAb (Cat#554387, BD Biosciences), biotin-anti-IL-4 mAb (Cat#554390, BD Biosciences), anti-IL-5 mAb (Cat#554393, BD Biosciences), biotin-anti-IL-5 mAb (Cat#554397, BD Biosciences), anti-IFN-γ mAb (Cat#551216, BD Biosciences), biotin-anti-IFN-γ mAb (Cat#554410, BD Biosciences), anti-IL-2 mAb (Cat#554424, BD Biosciences), biotin-anti-IL-2 mAb (Cat#554426, BD Biosciences), streptavidin horseradish peroxidase (Cat#434323, Invitrogen), and TMB peroxidase EIA substrate kit (Cat#1721066, BioRad). […]

Jurkat cells = assay: MTS assay (cytotoxicity); type: cell-based; conditions: 0 to 100 µM, 3 days
Experimental: Jurkat cells were cultured at 37 °C with 5% CO2 in RPMI 1640 Medium (cat#72400047; Thermo Fisher) in the presence or absence of pyrrothiogatain (0 to 100 µM). Cell viability was measured using a CellTiter 96® AQueous One Solution Cell Proliferation Assay (cat#G3582; Promega) according to the manufacturer’s protocol.

RelA = biological target: T1, RelA (Homo sapiens, UniProt Q04206); assay: AlphaScreen binding assay of RelA and its target DNA (control); conditions: second screen, 0 to 10 µM
T1 construct: FLAG; made in house; host or cells: wheat cell-free protein synthesis system (inferred from the general methods)
T1 sequence (Q04206 whole entry, species assumed): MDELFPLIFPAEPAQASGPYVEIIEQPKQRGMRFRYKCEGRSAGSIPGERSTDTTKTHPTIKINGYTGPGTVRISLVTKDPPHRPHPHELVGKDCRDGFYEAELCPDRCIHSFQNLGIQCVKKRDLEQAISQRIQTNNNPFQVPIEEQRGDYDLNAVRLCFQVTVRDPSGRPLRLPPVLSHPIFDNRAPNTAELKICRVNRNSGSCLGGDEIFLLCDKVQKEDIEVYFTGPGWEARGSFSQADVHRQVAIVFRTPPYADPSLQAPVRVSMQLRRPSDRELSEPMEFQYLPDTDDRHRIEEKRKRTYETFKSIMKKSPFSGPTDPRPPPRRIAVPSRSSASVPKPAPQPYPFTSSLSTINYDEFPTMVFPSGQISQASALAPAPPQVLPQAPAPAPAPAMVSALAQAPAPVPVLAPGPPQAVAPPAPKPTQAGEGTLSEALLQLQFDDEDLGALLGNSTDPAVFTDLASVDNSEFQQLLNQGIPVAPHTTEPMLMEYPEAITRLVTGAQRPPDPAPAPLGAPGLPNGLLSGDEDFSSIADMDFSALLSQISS
Excerpt: Figure 2 Identification of a GATA3 inhibitor using the wheat cell-free drug screening system. (A) A flow chart of the high-throughput screening to identify the 3-(2,5-dimethyl-1H-pyrrol-1-yl)thiophene-2-carboxylic acid that inhibits the DNA-binding activity of GATA3. The 3-(2,5-dimethyl-1H-pyrrol-1-yl)thiophene-2-carboxylic acid was named pyrrothiogatain (pyrrole and thiofuran containing GATA3 inhibitor). (B) The results of the first screen using 9,600 compounds. In the assay, each chemical compound was used at a final concentration of 10 µM. (C) The results of the second screening that show the inhibition rate of pyrrothiogatain. The inhibition assay of GATA3 DNA-binding activity was performed in the presence of various concentrations of pyrrothiogatain (0 to 10 µM). Biotinylated FLAG-peptide was used as a control to measure the interference of compounds in the AlphaScreen assay. In addition, a binding assay of RelA and its target DNA was used as control for GATA3. (D) Electrophoretic mobility shift assay (EMSA) of GATA3 with its consensus motif containing oligonucleotide in the presence of various concentrations of pyrrothiogatain (0 to 100 µM). GATA3 consensus oligonucleotide labelled with ^32P was detected by autoradiography. […] In (B,D,E), all data are expressed as individual points of three independent experiments with error bars indicating standard deviation. […]

GATA3 = biological target: T2, GATA3 (Homo sapiens, UniProt P23771); assay: Electrophoretic mobility shift assay (EMSA), GATA3; type: binding; conditions: 50 to 100 µM
T2 construct: we synthesized the recombinant full-length GATA3 protein with an N-terminal FLAG tag using the wheat cell-free system; made in house; host or cells: wheat cell-free protein synthesis system (WEPRO1240 kit)
T2 sequence (P23771 whole entry, species assumed): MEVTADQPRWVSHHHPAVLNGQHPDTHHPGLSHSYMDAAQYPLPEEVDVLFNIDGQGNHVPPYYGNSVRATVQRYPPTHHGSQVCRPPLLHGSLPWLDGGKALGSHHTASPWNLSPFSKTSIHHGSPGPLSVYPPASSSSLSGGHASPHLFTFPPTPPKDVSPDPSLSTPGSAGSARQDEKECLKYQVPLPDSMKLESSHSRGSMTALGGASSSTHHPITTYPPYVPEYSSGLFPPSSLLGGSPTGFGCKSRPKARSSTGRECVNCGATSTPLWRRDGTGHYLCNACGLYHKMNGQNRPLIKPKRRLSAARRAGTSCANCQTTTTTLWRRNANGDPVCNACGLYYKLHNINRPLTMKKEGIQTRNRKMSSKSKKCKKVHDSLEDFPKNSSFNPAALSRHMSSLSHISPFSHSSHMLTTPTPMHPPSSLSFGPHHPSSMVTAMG
Experimental: Electrophoretic mobility shift assays were performed as described previously. In brief, four GATA family proteins (GATA2 to GATA5) were incubated with a ^32P-labelled GATA-binding DNA probe for 20 min at 4 °C in the presence or absence of pyrrothiogatain (0 to 100 µM). The DNA-protein complex was separated from free oligonucleotides on 4% polyacrylamide gels, and then, the ^32P-labelled DNA probes were detected using the Typhoon FLA 7000 (GE Healthcare).

Interference with the RelA-DNA interaction (RelA): without interfering
Intensity of the shifted bands generated by GATA3-DNA binding (GATA3): decreased
SMILES: Cc1ccc(C)n1-c1ccsc1C(=O)O [Pyrrothiogatain, 3-(2,5-dimethyl-1H-pyrrol-1-yl)thiophene-2-carboxylic acid]
Production of IL-4, IL-5 and IL-13 (ELISA) (Th2 cytokines): Decreased
Cell viability (Jurkat cells): did not influence cell viability
